Measured values from paper PMC6063907, “Metal-cation regulation of enzyme dynamics is a key factor influencing the activity of S-adenosyl-L-homocysteine hydrolase from Pseudomonas aeruginosa” (Scientific Reports, 2018).
Read-outs that look alike come from different tables or passages of the source.

Experiments:
wild type (WT) PaSAHase [1] = target: T1, wild type (WT) PaSAHase (Pseudomonas aeruginosa, UniProt Q9I685); assay type: biochemical; details: WT enzyme; for kcat/KM: 100 mM MeCl, 25 mM HEPES·MeOH pH 7.5, substrate SAH, 293 K, ± SEM
T1 construct: His-tag with TEV site (from vector pMCSG57) (N, cleaved yes); made in house; host or cells: E. coli BL21-CodonPlus(DE3)-RIPL
Description: (§1) Assays for PaSAHase activity in the hydrolytic direction were carried out spectrophotometrically and the rate of L-homocysteine (Hcy) formation was measured by monitoring its reaction with 5,5′-dithiobis(2-nitrobenzoic acid) (DTNB)[21]. Assays were performed in 3 mL volume in a buffer containing 100 mM MeCl (where Me^+ corresponds to Li^+, Na^+, K^+, Rb^+, or Cs^+ ion) and 25 mM HEPES·MeOH pH 7.5, or a buffer containing 100 mM Tris·HCl pH 7.5. For the Q65A mutein, the experiments were conducted in a buffer containing 100 mM KCl and 25 mM HEPES·KOH pH 7.5. The buffers were supplemented with six units of adenosine deaminase, 100 μM DTNB, and 0.32 μM of PaSAHase or its mutein. The reaction was initiated by the addition of S-adenosyl-L-homocysteine (SAH) at a final concentration from 2.5 to 200 μM. The conversion of Hcy to Hcy-TNB was carried out at 293 K. The reaction progress was measured for one minute and monitored at 412 nm using a U-3900H spectrophotometer (Hitachi). Initial velocity parameters were estimated from the linear region of the recorded curve.
(§2) For the inhibition study, PaSAHase (0.35 μM) in a buffer containing 100 mM KCl and 25 mM Tris·HCl pH 7.5 was incubated with Zn^2+ at different concentrations, ranging from 0.165 to 20 μM. The reaction was initiated by the addition of SAH at a final concentration of 85 μM. The enzymatic activity was followed in the hydrolytic direction by monitoring homocysteine formation via its reaction with DNTB to determine the IC50 constant. For the sample without the addition of Zn^2+ ions, 100% activity was assigned. All measurements were performed in duplicates. The experimental data were analyzed with the GraFit 7.0 software (Erithacus) to obtain the kinetic parameters of the enzymatic reactions: substrate affinity (KM), activity (Vmax), as well as catalytic rate (kcat) or IC50 value for inhibition. The IC50-to-Ki converter[61] was applied to calculate the inhibition constant (Ki) for Zn^2+ ions using the noncompetitive model of inhibition.

PaSAHase [2] = target: T2, PaSAHase (Pseudomonas aeruginosa, UniProt Q9I685); experiment: ITC titration of PaSAHase with metal ions (Zn^2+, K^+); assay type: binding
T2 construct: His-tag with TEV site (from vector pMCSG57) (N, cleaved yes); made in house; host or cells: E. coli BL21-CodonPlus(DE3)-RIPL
T2 sequence (Q9I685 1-469): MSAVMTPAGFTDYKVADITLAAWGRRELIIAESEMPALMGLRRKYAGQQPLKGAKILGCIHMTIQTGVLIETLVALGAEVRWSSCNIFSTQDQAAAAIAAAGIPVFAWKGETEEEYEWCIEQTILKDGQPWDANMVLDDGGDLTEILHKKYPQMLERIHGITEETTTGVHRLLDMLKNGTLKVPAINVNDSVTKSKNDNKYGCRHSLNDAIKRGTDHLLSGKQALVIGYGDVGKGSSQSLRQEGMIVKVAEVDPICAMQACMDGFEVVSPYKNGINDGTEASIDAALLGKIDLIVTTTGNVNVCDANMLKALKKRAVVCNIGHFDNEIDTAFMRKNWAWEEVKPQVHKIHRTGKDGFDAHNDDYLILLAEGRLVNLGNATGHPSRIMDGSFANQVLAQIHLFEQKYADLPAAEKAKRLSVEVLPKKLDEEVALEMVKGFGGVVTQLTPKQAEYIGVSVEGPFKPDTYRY
Description: (§3) ITC measurements were performed at 293 K using a MicroCal iTC200 calorimeter (GE Healthcare). For the adenosine binding studies, the wild type protein was dialyzed against a buffer containing 100 mM MeCl and 25 mM HEPES·MeOH pH 7.5, or an alkali-cation-free buffer containing 100 mM Tris·HCl pH 7.5. The experiment for the Q65A mutein was conducted in a buffer containing 100 mM KCl and 25 mM HEPES·KOH pH 7.5. The final protein concentrations were in the range of 100–120 µM. Adenosine was dissolved in the dialysis buffers to the concentrations of 0.6 to 1.0 mM. The K^+ ion binding study was conducted in 50 mM Tris·HCl pH 7.5 at PaSAHase concentration of 70 μM. The protein was titrated with 1 mM KCl in 50 mM Tris·HCl pH 7.5. The Zn^2+ ion binding study was conducted in a buffer containing 100 mM KCl and 50 mM Tris·HCl pH 7.5 at PaSAHase concentration of 45 μM. The protein was titrated with 2 mM ZnCl2. In all ITC experiments the ligand was injected to the protein solution (300 μL) in 2 µL aliquots until saturation was observed. The protein concentrations were estimated by the Bradford method and are presented for a single PaSAHase subunit. The raw ITC data were analyzed with the ORIGIN 7.0 software (OriginLab) to obtain the thermodynamic parameters of the complexation reactions: stoichiometry (N), dissociation constant (Kd), as well as changes in enthalpy (ΔH) and entropy (ΔS). For sigmoidal titration curves, the one set of sites model was fitted and N was obtained from the experiment. For hyperbolic curves, for which the determination of N is impossible, N was fixed while fitting the same model. All measurements were performed in duplicates.

Q65A PaSAHase [3] = target: T3, Q65A PaSAHase (Pseudomonas aeruginosa, UniProt Q9I685, Q65A); assay type: biochemical; details: Q65A mutein, 100 mM KCl, 25 mM HEPES·KOH pH 7.5, substrate SAH, 293 K; ± SEM
T3 construct: His-tag with TEV site (from vector pMCSG57) (N, cleaved yes); made in house; host or cells: E. coli BL21-CodonPlus(DE3)-RIPL
Description: as §1, §2

PaSAHase [4] = target: T2, PaSAHase; experiment: Time course of PaSAHase inactivation by 2′-deoxyadenosine (NADH formation, spectrofluorimetric); assay type: biochemical
Description: The measurements were performed at 293 K using an F-7000 spectrofluorotometer (Hitachi) in the volume of 1 mL. Irreversible formation of the reduced form of the cofactor (NADH) was monitored spectrofluorometrically by excitation at 340 nm and measurement of emission at 460 nm, as described previously. The influence of K^+ and Rb^+ ions on the time-dependent inactivation of the enzyme was carried out for 15 μM PaSAHase in a buffer containing 100 mM KCl or RbCl, 25 mM HEPES·KOH or HEPES·RbOH pH 7.5, and 1 mM TCEP·HCl. In the first experiment, the reaction was initiated by the addition of 2′-deoxyadenosine to the final concentration of 5 mM. In the second experiment, the enzyme was incubated for 2 hours with 100 μM adenosine and subsequently 2′-deoxyadenosine was added at a final concentration of 200 μM. After one minute the reaction was monitored for 4000 seconds (first experiment) or until the intensity of fluorescence emission reached a plateau (second experiment). An analogous experiment was carried out to analyze the influence of Zn^2+ cations on the enzyme. […] The cofactor conversion reaction was initiated by the addition of 2′-deoxyadenosine to the final concentration of 5 mM and after one minute was monitored for 5000 seconds.

PaSAHase [5] = target: T2, PaSAHase; experiment: Inhibition of PaSAHase by Zn^2+ ions (DTNB assay); assay type: biochemical; details: 100 mM KCl; for Ki: calculated from IC50 with IC50-to-Ki converter, noncompetitive model, 25 mM Tris·HCl pH 7.5, SAH 85 μM, enzyme 0.35 μM, read-out: inhibitory constant Ki
Description: as §2

wild type (WT) PaSAHase [6] = target: T1, wild type (WT) PaSAHase; experiment: ITC titration of wild type PaSAHase with adenosine; assay type: binding; details: for stoichiometry (N) / ΔH / ΔS / Kd: pH 7.5, 293 K; for Kd: dissociation constant Kd
Description: as §3

Q65A PaSAHase [7] = target: T3, Q65A PaSAHase; experiment: ITC titration of Q65A PaSAHase with adenosine; assay type: binding
Description: as §3

human placental SAHase = target: human placental SAHase; design: method as in PMID 17892301; details: read-out: inhibition constant; cited from earlier work
[8] = target: the molecule itself; experiment: SEC; Superdex 200 gel filtration in buffer D (100 mM KCl, 25 mM HEPES-KOH pH 7.5, 1 mM TCEP-HCl), after reconstitution with NAD+
[9] = Q65A, 100 mM K^+, pH 7.5, 293 K

T3 sequence (Q9I685 whole entry Q65A): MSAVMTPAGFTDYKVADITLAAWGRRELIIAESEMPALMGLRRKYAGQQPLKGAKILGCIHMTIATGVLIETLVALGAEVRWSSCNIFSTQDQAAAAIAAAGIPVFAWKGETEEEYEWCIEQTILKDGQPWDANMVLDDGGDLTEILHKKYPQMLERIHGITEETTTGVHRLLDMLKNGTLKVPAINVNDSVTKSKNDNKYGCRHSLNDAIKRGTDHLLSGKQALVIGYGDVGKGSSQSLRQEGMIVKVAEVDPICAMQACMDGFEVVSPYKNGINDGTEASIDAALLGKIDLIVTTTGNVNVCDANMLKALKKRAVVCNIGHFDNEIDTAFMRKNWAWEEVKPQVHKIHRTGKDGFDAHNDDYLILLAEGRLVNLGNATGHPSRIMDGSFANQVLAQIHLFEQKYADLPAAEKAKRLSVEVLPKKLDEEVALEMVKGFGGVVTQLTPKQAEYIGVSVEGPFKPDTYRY

Molecule: [Cs+] [Cs^+]
- kcat/KM (wild type (WT) PaSAHase [1]): 6668 ± 333 M⁻¹ s⁻¹

Molecule: [K+] [K^+]
- heat effect of ITC titration of ligand- and alkali-metal-free PaSAHase (PaSAHase [2]; 50 mM Tris·HCl pH 7.5, 70 μM PaSAHase, titrated with 1 mM KCl): No effect other than K^+ dilution heat
- kcat/KM (Q65A PaSAHase [3]): 5322 ± 358 M⁻¹ s⁻¹
- kcat/KM (wild type (WT) PaSAHase [1]): 72502 ± 4858 M⁻¹ s⁻¹

Molecule: [Li+] [Li^+]
- kcat/KM (wild type (WT) PaSAHase [1]): 731 ± 143 M⁻¹ s⁻¹

Molecule: [Na+] [Na^+]
- kcat/KM (wild type (WT) PaSAHase [1]): 8467 ± 940 M⁻¹ s⁻¹

Molecule: [Rb+] [Rb^+]
- rate of NADH formation compared with K^+ (PaSAHase [4]; enzyme first incubated with 100 μM adenosine, then 200 μM 2′-deoxyadenosine added, 100 mM RbCl): significantly lower
- kcat/KM (wild type (WT) PaSAHase [1]): 3568 ± 237 M⁻¹ s⁻¹
- mode of inhibition (wild type (WT) PaSAHase [1]; 100 mM RbCl, kinetics with SAH): noncompetitive inhibitor
- drop of kcat compared with K^+ (wild type (WT) PaSAHase [1]; relative to kcat in the presence of K^+): ~33 fold

Molecule: [Zn+2] [Zn^2+]
- stoichiometry of protein:Zn^2+ binding, per one subunit (PaSAHase [2]; 100 mM KCl, 50 mM Tris·HCl pH 7.5, 45 μM enzyme, 2 mM ZnCl2, 293 K): 0.90 ± 0.06
- Kd (PaSAHase [2]; 100 mM KCl, 50 mM Tris·HCl pH 7.5, 45 μM enzyme, 2 mM ZnCl2, 293 K, read-out: apparent binding constant Kd): 12700 ± 2900 nM
- mode of inhibition (PaSAHase [5]; 25 mM Tris·HCl pH 7.5): very strong noncompetitive inhibitor
- Ki (PaSAHase [5]; listed as zinc): ~15 nM
- Ki (PaSAHase [5]): 15 nM
- rate of NADH formation (PaSAHase [4]; 100 mM KCl, enzyme incubated with adenosine (200 μM) and ZnCl2 (1, 5 or 10 μM), then 5 mM 2′-deoxyadenosine): gradually decreased with increasing Zn^2+ concentration

Molecule: Nc1ncnc2c1ncn2[C@@H]1O[C@H](CO)[C@@H](O)[C@H]1O [adenosine]
- stoichiometry (N) (wild type (WT) PaSAHase [6]; 100 mM Cs^+): 0.94 ± 0.02
- ΔH (wild type (WT) PaSAHase [6]; 100 mM Cs^+): -4.174 ± 0.115 kcal/mol
- ΔS (wild type (WT) PaSAHase [6]; 100 mM Cs^+): 10.1 cal/mol/°
- stoichiometry (N) (wild type (WT) PaSAHase [6]; 100 mM K^+): 0.80 ± 0.01
- ΔH (wild type (WT) PaSAHase [6]; 100 mM K^+): -9.665 ± 0.237 kcal/mol
- ΔS (wild type (WT) PaSAHase [6]; 100 mM K^+): −5.9 cal/mol/°
- stoichiometry (N) (wild type (WT) PaSAHase [6]; 100 mM Na^+): 0.97 ± 0.02
- ΔH (wild type (WT) PaSAHase [6]; 100 mM Na^+): -3.891 ± 0.114 kcal/mol
- ΔS (wild type (WT) PaSAHase [6]; 100 mM Na^+): 9.8 cal/mol/°
- stoichiometry (N) (wild type (WT) PaSAHase [6]; 100 mM Rb^+): 0.84 ± 0.01
- ΔH (wild type (WT) PaSAHase [6]; 100 mM Rb^+): -8.935 ± 0.137 kcal/mol
- ΔS (wild type (WT) PaSAHase [6]; 100 mM Rb^+): −4.2 cal/mol/°
- Kd (wild type (WT) PaSAHase [6]; 100 mM Cs^+): 4700 ± 600 nM
- Kd (wild type (WT) PaSAHase [6]; 100 mM K^+): 1200 ± 200 nM
- Kd (wild type (WT) PaSAHase [6]; 100 mM Na^+): 8800 ± 1000 nM
- Kd (wild type (WT) PaSAHase [6]; 100 mM Rb^+): 1800 ± 200 nM
- heat effect of ITC titration (wild type (WT) PaSAHase [6]; in the absence of any alkali metals or the presence of Li^+ ions): immeasurably small
- Kd (Q65A PaSAHase [7]): 7300 ± 400 nM
- stoichiometry (N) (Q65A PaSAHase [7]; [9]): 0.236 ± 0.004
- ΔH (Q65A PaSAHase [7]; [9]): -7.447 ± 0.167 kcal/mol

Molecule: [Cu+2] [copper]
- Ki (human placental SAHase): ~25 nM

B1: S-adenosyl-L-homocysteine hydrolase from Pseudomonas aeruginosa (enzyme, Pseudomonas aeruginosa PAO1)
chain: SNAMSAVMTPAGFTDYKVADITLAAWGRRELIIAESEMPALMGLRRKYAGQQPLKGAKILGCIHMTIQTGVLIETLVALGAEVRWSSCNIFSTQDQAAAAIAAAGIPVFAWKGETEEEYEWCIEQTILKDGQPWDANMVLDDGGDLTEILHKKYPQMLERIHGITEETTTGVHRLLDMLKNGTLKVPAINVNDSVTKSKNDNKYGCRHSLNDAIKRGTDHLLSGKQALVIGYGDVGKGSSQSLRQEGMIVKVAEVDPICAMQACMDGFEVVSPYKNGINDGTEASIDAALLGKIDLIVTTTGNVNVCDANMLKALKKRAVVCNIGHFDNEIDTAFMRKNWAWEEVKPQVHKIHRTGKDGFDAHNDDYLILLAEGRLVNLGNATGHPSRIMDGSFANQVLAQIHLFEQKYADLPAAEKAKRLSVEVLPKKLDEEVALEMVKGFGGVVTQLTPKQAEYIGVSVEGPFKPDTYRY
notes: short tripeptide (SNA-) cloning artifact that extends the N-terminus of the purified protein; S-adenosyl-L-homocysteine hydrolase, Pseudomonas aeruginosa PAO1; about 53 kDa by SDS-PAGE; Batches were either Zn2+-containing or freed of Zn2+ with TPEN; The vector pMCSG57 is named, the tag itself is not; also called PaSAHase; SAHase
- stoichiometry N [8]: 4
